Like-named read-outs stand apart in the source and are kept apart here.
T1: MtBgl3a (Thermothelomyces thermophilus, UniProt G2QDN2)
T1 construct: gene MYCTH_66804
T1 sequence (G2QDN2 18-733): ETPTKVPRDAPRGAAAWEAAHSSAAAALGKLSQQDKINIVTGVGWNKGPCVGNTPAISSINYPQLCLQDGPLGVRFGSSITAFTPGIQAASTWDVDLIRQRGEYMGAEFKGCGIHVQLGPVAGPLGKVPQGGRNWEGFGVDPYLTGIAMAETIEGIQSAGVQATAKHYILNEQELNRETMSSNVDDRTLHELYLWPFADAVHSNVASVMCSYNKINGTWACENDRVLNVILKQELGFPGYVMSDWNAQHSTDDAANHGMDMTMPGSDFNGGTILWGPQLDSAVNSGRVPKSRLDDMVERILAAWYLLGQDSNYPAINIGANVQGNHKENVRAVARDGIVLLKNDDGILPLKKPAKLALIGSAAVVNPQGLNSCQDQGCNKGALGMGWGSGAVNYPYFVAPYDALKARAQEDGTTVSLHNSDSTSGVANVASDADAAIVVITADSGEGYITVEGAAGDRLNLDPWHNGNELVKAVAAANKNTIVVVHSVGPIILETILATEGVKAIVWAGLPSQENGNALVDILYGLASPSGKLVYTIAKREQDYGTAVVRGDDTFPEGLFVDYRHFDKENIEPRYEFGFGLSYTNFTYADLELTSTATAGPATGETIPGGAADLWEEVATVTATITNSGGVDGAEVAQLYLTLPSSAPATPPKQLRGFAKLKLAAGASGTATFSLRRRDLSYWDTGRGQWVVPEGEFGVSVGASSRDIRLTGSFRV

B1: MtBgl3a (Thermothelomyces thermophilus ATCC 42464) (protein)
chain: T1 sequence (G2QDN2 18-733)

Tests used:
MtBgl3a = target: T1, MtBgl3a; assay: p-nitrophenol release, absorbance […] nm; Michaelis-Menten fit (GraFit); assay type: biochemical
purified protein = substrate: O=[N+]([O-])c1ccc(O[C@@H]2O[C@H](CO)[C@@H](O)[C@H](O)[C@H]2O)cc1; assay: purified protein; settings: 100 mM citrate-phosphate pH 5.0, 40 °C
[1] = competitive, substrate p-β-NPG, pH 5.0 citrate-phosphate

Row | Molecule | Ki (MtBgl3a; [1]) [µM] | further results
1 | O=C(O)[C@H](O)[C@@H](O)[C@H](O)[C@H](O)CO [D-gluconic acid] | – | Ki (MtBgl3a): 22 ± 2 µM
2 | OC[C@H]1OC(O)[C@H](O)[C@@H](O)[C@@H]1O (stereo partly drawn) [D-glucose] | 282 ± 100 | –
3 | OC1OC[C@@H](O)[C@H](O)[C@H]1O (stereo partly drawn) [D-xylose] | 30 ± 5 | –
4 | B1 | – | Km (purified protein): 390 ± 120 µM

From paper PMC3628895, “Cloning, expression and characterization of an ethanol tolerant GH3 β-glucosidase from Myceliophthora thermophila” (PeerJ, 2013)
